# Data reported in PMC10528180 (Foods, 2023).
# How the values were obtained:
# α-glucosidase [1] = biological target: T1, α-glucosidase (Saccharomyces cerevisiae, UniProt P53341); experiment: Fluorescence quenching experiment with α-glucosidase (Stern-Volmer, double logarithmic, Van 't Hoff); assay type: binding; conditions: for Kd: Ka (binding constant) α-glucosidase
# T1 construct: purchased Sigma-Aldrich Co
# Method: Based on the previously described techniques, the fluorescence quenching experiment was somewhat modified. […] The reaction solution’s fluorescence intensity was measured in a quartz colorimetric dish using a fluorescence spectrometer (F-7100, Tokyo, Japan) at wavelengths ranging from 295 to 500 nm (emission wavelength) and 280 nm ([…]) (1.0 cm path length). The 5.0 nm excitation and emission slit widths were predetermined.
# By determining the quenching constant, it is possible to discriminate between dynamic and static protein fluorescence quenching caused by compounds [39]. […] With the increase in temperature, the binding of the complex is unstable, so the quenching constant decreases. The drop in fluorescence intensity brought on by the interaction of the quencher and the fluorescence group is what causes dynamic quenching. When the collision between the quencher and the fluorescence group intensifies as the temperature rises, the quenching constant rises. The quenching mechanism of the enzyme was further studied using the Stern–Volmer equation:(2) F0/F=1+Kqτ0Q=1+Ksv[Q], where Kq is the bimolecular quenching constant, F0 represents the fluorescence intensity of starch-digesting enzymes in the absence of inhibitors, F represents the fluorescence intensity of starch-digesting enzymes in the presence of inhibitors, and τ0 is the lifetime of the fluorophore in protein (about 10^−8 s).
# By calculating the thermodynamic parameters of the quenching process, the binding affinity and the main force of the reaction process were evaluated. The thermodynamic parameters are calculated using the Van ’t Hoff equation:(4) lnKa=−△H/RT+△S/R. (5) △G=△H−T△S. where Ka is the binding constant, R is the universal gas constant, and T represents the test temperature (300.15 K, 305.15 K, 310.15 K). The thermodynamic parameters ΔH, ΔS, and ΔG represent enthalpy change, entropy change, and free energy change, respectively. […] The interaction forces in the reaction process can be roughly divided into four types: hydrophobic interaction, hydrogen bonding, electrostatic interaction, and van der Waals interaction.
# α-glucosidase [2] = biological target: T1, α-glucosidase; experiment: Inhibition kinetic analysis (Lineweaver-Burk) on α-glucosidase; assay type: biochemical
# Method: (§1) The reactions of a series of compounds with substrates pNαPG and G3-CNP were tested using the Lineweaver–Burk expression in Equation (1) to calculate the maximum velocity (Vmax) and Michaelis–Menten constant (Km) values. (1) 1/v=Km/Vmax1/[S]+1/Vmax, where Vmax and Km are the maximum velocity of the enzyme and the Michaelis–Menten constant without inhibitor, respectively. [S] is the concentrations of the substrate and inhibitor.
# α-amylase = biological target: T2, α-amylase (Sus scrofa, UniProt P00690); experiment: Inhibition kinetic analysis (Lineweaver-Burk) on α-amylase; assay type: biochemical, porcine; parameters: Vmax α-amylase: unit not given beside the values
# T2 construct: α-amylase (EC 232-565-6, powder, ≥5 units/mg solid) isolated from porcine pancreas; purchased Sigma-Aldrich Co; host or cells: porcine pancreas
# T2 sequence (P00690 16-511): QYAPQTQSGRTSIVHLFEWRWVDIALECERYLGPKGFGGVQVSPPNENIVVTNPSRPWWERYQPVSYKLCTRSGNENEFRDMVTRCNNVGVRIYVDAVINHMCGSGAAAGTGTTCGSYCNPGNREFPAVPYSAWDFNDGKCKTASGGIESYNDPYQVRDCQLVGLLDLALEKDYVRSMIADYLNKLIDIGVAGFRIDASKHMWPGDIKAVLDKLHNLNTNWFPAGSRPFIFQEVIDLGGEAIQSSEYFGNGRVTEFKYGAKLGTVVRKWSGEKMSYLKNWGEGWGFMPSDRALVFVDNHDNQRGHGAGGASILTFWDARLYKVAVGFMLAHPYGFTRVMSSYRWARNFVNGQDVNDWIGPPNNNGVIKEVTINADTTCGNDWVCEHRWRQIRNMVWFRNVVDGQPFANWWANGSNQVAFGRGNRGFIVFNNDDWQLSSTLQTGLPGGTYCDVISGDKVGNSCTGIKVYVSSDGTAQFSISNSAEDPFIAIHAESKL
# Method: as §1
# db/db mice = experiment: Postprandial blood glucose level measurement after oral starch load; assay type: in vivo; conditions: for glucose AUC / reduction of glucose AUC of diabetic mice: oral starch 2 g/kg; for reduction of glucose AUC of diabetic mice: vs model
# Method: db/db mice and C57BL/6J mice were purchased f0rom Beijing Zhishan Health Medical Research Institute. The animal testing procedure was approved by Beijing Huayuan Times Technology Co., Ltd Ethics Committee on the Management and Welfare of Laboratory Animals. (Ethics review batch number: HYSD2023-04) and strictly follows the local and national codes of ethics. All mice were placed in a control chamber at 25 °C and 60% relative humidity with a light/dark period of 12/12 h. During this period, all mice had free access to normal feed and water. […] All mice were given starch (2 g/kg) orally 60 min after treatment. Blood samples were taken from the caudal vein and blood glucose was measured after 0, 30, 60, and 120 min. The area under the curve (AUC) was calculated using the trapezoidal rule.
# T1 sequence (P53341 whole entry): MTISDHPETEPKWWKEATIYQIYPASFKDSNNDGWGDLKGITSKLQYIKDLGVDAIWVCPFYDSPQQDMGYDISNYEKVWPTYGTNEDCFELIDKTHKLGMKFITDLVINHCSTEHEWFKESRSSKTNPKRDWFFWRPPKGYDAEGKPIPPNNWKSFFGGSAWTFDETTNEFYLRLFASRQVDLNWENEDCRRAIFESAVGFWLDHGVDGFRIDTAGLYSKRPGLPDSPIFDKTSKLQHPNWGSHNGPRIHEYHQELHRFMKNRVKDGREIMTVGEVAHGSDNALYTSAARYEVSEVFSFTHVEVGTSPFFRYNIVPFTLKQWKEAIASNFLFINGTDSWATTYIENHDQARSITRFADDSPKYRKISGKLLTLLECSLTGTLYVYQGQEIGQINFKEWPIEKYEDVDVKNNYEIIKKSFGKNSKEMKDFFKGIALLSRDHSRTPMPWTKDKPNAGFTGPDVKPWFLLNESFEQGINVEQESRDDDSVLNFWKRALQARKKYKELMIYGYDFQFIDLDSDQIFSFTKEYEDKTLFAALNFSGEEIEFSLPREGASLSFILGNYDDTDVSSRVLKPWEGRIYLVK
compound,measurement,setting,value
O=c1c(O)c(-c2ccc(O)c(O)c2)oc2cc(O[C@@H]3O[C@H](CO)[C@@H](O)[C@H](O)[C@H]3O)cc(O)c12 [Quercimeritrin],"fluorescence quenching mechanism, α-glucosidase",α-glucosidase [1],static quenching
same,Kd,α-glucosidase [1]; T 300.15 K,1.15 µM
same,Kd,α-glucosidase [1]; T 305.15 K,9.62 µM
same,Kd,α-glucosidase [1]; T 310.15 K,24.4 µM
same,Ksv (quenching constant) α-glucosidase,α-glucosidase [1]; T 300.15 K,0.17 ±0.03 10^5 /M
same,n (number of binding sites) α-glucosidase,α-glucosidase [1]; T 300.15 K,1.35
same,ΔG α-glucosidase,α-glucosidase [1]; T 300.15 K,-8.15 ± 2.22 kcal/mol
same,Ksv (quenching constant) α-glucosidase,α-glucosidase [1]; T 305.15 K,0.19 ±0.02 10^5 /M
same,n (number of binding sites) α-glucosidase,α-glucosidase [1]; T 305.15 K,1.20
same,ΔG α-glucosidase,α-glucosidase [1]; T 305.15 K,-7 ± 2.24 kcal/mol
same,Ka (binding constant) α-glucosidase,α-glucosidase [1]; T 310.15 K,0.41 ± 0.06 10^5 /M
same,Ksv (quenching constant) α-glucosidase,α-glucosidase [1]; T 310.15 K,0.21 ±0.04 10^5 /M
same,n (number of binding sites) α-glucosidase,α-glucosidase [1]; T 310.15 K,1.09
same,ΔG α-glucosidase,α-glucosidase [1]; T 310.15 K,-6.55 ± 1.87 kcal/mol
same,ΔH α-glucosidase,"α-glucosidase [1]; Van 't Hoff, 300.15-310.15 K",-56.6 ± 5.598 kcal/mol
same,ΔS α-glucosidase,"α-glucosidase [1]; Van 't Hoff, 300.15-310.15 K",-677.34 ±87.38 J/mol/K
same,n (number of binding sites) α-glucosidase,α-glucosidase [1]; text summary over temperatures,~1
same,inhibition mode on α-glucosidase,α-glucosidase [2]; Lineweaver-Burk diagram,competitive inhibition
same,Vmax α-glucosidase,α-glucosidase [2]; [I] 15.6 μM,0.2151
same,Vmax α-glucosidase,α-glucosidase [2]; [I] 31.3 μM,0.2028
same,Vmax α-glucosidase,α-glucosidase [2]; [I] 62.5 μM,0.2000
same,Vmax α-glucosidase,α-glucosidase [2]; [I] 125 μM,0.1916
same,Vmax α-glucosidase,α-glucosidase [2]; [I] 250 μM,0.1890
same,Vmax α-glucosidase,α-glucosidase [2]; [I] 500 μM,0.1761
same,inhibition mode on α-amylase,α-amylase; Lineweaver-Burk diagram,competitive inhibition
same,Vmax α-amylase,α-amylase; [I] 15.6 μM,0.0521
same,Vmax α-amylase,α-amylase; [I] 31.3 μM,0.0532
same,Vmax α-amylase,α-amylase; [I] 62.5 μM,0.0522
same,Vmax α-amylase,α-amylase; [I] 125 μM,0.0526
same,Vmax α-amylase,α-amylase; [I] 250 μM,0.0503
same,Vmax α-amylase,α-amylase; [I] 500 μM,0.0508
same,glucose AUC,db/db mice; 100 mg/kg,43.7 mmol·h/L
same,reduction of glucose AUC of diabetic mice,db/db mice; 100 mg/kg,19.0%
same,glucose AUC,db/db mice; 200 mg/kg,40.7 mmol·h/L
same,reduction of glucose AUC of diabetic mice,db/db mice; 200 mg/kg,24.5%
same,postprandial blood glucose level,"db/db mice; HD group 200 mg/kg, oral starch",significantly lower than that of the control and acarbose groups
